Test results reported in patent publication US12006314B2, “Anti-cancer nuclear hormone receptor-targeting compounds” (Nuvation Bio Inc., priority 2021, dated 2024).

Assays:
[1] = molecular target: T1, ER Alpha-ligand binding domain (LBD) (Homo sapiens, UniProt P03372); test: ER binding assay (LanthaScreen TR-FRET ER Alpha Competitive Binding); conditions: Fluormone ES2 Green tracer 3 nM, 2 h
T1 sequence (P03372 311-547 limits assumed): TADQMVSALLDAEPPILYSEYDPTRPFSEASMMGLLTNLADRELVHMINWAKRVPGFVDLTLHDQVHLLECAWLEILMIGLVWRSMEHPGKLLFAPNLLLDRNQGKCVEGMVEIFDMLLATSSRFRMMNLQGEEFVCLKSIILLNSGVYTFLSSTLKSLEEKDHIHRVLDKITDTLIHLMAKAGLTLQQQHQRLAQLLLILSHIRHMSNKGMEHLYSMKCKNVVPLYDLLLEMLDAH
Description: ER binding assay: ERα binding was assessed using the LanthaScreen® TR-FRET ER Alpha Competitive Binding kit from ThermoFisherScientific. In this assay, a terbium-labeled anti-GST antibody was used to indirectly label GST-tagged ER Alpha-ligand binding domain (LBD) by binding to its GST tag. Competitive binding to the ER Alpha-LBD (GST) was detected by a test compound's ability to displace a fluorescent ligand (Fluormone™ ES2 Green tracer) from the ER Alpha-LBD (GST), which results in a loss of FRET signal between the Tb-anti-GST antibody and the tracer. To assess ER binding, test compound (top dose 10 μM, 4 fold serial dilution, 8 point dose response) and controls (e.g. estradiol) were transferred to the assay plate. The Fluormone™ ES2 Green tracer (3 nM final concentration with assay buffer) was added to the assay plate. This was followed by addition of a mixture of the ER Alpha-LBD (GST) and terbium anti-GST antibody. After a 2 h incubation period at room temperature, the plate was read on the Envision plate reader and the TR-FRET ratio of 520:495 emissions were calculated and used to determine the IC50 from a dose response curve of the compound.

[2] = molecular target: T2, ER (SK-BR-3 cells transfected with ERE plasmid and ER) (Homo sapiens, UniProt P03372); test: ER antagonism assay; type: cell-based; conditions: 100 nM β-Estradiol, 24 h, Dual-glo luciferase
T2 construct: expressed in transfected cells; host or cells: SK-BR-3 (transient, lipofectamine 3000)
T2 sequence (P03372 1-595): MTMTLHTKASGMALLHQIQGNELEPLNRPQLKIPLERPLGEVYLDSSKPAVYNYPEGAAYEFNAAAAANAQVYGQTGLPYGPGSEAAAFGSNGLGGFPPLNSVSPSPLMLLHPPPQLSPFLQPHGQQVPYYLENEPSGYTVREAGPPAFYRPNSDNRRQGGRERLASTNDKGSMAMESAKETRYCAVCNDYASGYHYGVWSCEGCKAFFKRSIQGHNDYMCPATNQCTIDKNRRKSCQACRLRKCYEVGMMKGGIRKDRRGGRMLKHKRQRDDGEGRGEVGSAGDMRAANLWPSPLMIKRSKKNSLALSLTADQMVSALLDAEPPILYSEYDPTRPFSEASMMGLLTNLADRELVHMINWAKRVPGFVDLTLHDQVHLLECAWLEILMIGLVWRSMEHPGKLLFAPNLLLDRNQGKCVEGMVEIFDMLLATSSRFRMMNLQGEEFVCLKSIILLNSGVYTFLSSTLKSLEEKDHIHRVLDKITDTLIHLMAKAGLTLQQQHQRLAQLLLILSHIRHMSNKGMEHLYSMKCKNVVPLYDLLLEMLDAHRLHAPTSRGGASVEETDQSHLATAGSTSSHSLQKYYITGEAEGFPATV
Description: ER antagonism assay: To evaluate ER antagonist activity, SK-BR-3 cells were seeded at a density of 30000 cells/well in the assay plate. The assay plate was then incubated at 37° C., 5% CO2 for 24 h. A mixture of ERE plasmid and ER in opti-MEM media was incubated with lipofectamine 3000 in Opti-MEM media and incubated at room temperature for 15 minutes. 10 μL of this transfection mix was added to each well of the assay plate and the assay plate was incubated at 37° C., 5% CO2 for 24 h. 100 nM β-Estradiol in 10 μL medium or 10 μL medium (control wells) was added to corresponding wells of assay plate and incubated at 37° C. 5% CO2 for 24 h. After the incubation period, 50 μL of Dual-glo luciferase reagent was added to the assay plate and mixed at room temperature for 20 mins on an orbital shaker, before reading out on the EnVision plate reader. 50 μL of Stop & Glo reagent was added to assay plate, mixed at room temperature for 20 minutes, and read on the Envision plate reader.

MCF7 cells = test: Cell viability assay MCF7; type: cell-based; conditions: Homo sapiens, MCF7, 144 h; 6 days, CellTiterGlo
Description: (§1) Cell viability assay: LNCap, 22Rv1, MCF7, MDAMB361, T47D, and IEC6 cells were seeded at a density of 500-2000 cells/well in 96 well plates, and a ‘T0’ (timepoint 0) was included along with the assay plate. The plates were then incubated at 37° C., 5% CO2 in a cell culture incubator overnight. On the next day, the ‘T0’ plate was assayed using CellTiterGlo (Promega, Inc) according to the manufacturer's instructions. The appropriate compounds were diluted in DMSO and added to the assay plate (final DMSO concentration of 0.1-0.2%) on the next day. The assay plates were incubated for 6 days at 37° C., 5% CO2. After the incubation period, the plates were assayed using CellTiterGlo (Promega, Inc) according to the manufacturer's instructions and luminescence was read on the EnVision plate reader. Inhibition of the tested compounds was determined by the following formula: Inhibition rate (%)=(1−(RLU compound−RLU day0)/(RLU control−RLU day0))*100%. GraphPadPrism was used to analyze the data and determine GI50/IC50 values.

MDAMB361 cells = test: Cell viability assay MDAMB361; type: cell-based; conditions: Homo sapiens, MDA-MB-361, 144 h; 6 days, CellTiterGlo
Description: as §1

IEC6 cells = test: Cell viability assay IEC6; type: cell-based; conditions: Rattus norvegicus, IEC-6, 144 h; 6 days, CellTiterGlo
Description: as §1

Row | IC50 [1] | IC50 [2] | GI50 (MCF7 cells) | GI50 (MDAMB361 cells) | SMILES | IC50 (IEC6 cells)
1 | ≤ 100 nM | ≤ 100 nM | ≤ 500 nM | > 30000 nM | CCc1cc2ncc(CN3CCN(C(=O)CCCCCOc4cc(F)c([C@@H]5c6[nH]c7ccccc7c6C[C@@H](C)N5CC(C)(C)F)c(F)c4)CC3)cc2[nH]c1=O [Compound 61, 7-((4-(6-(3,5-Difluoro-4-((1R,3R)-2-(2-fluoro-2-methylpropyl)-3-methyl-2,3,4,9-tetrahydro-1H-pyrido[3,4-b]indol-1-yl)phenoxy)hexanoyl)piperazin-1-yl)methyl)-3-ethyl-1,5-naphthyridin-2(1H)-one] | > 30000 nM
2 | – | ≤ 100 nM | ≤ 500 nM | 500 to 5000 nM | CCc1cc2ncc(CN3CCN(CCOc4cc(F)c([C@@H]5c6[nH]c7ccccc7c6C[C@@H](C)N5CC(C)(C)F)c(F)c4)CC3)cc2[nH]c1=O [Compound 71, 7-((4-(2-(3,5-Difluoro-4-((1R,3R)-2-(2-fluoro-2-methylpropyl)-3-methyl-2,3,4,9-tetrahydro-1H-pyrido[3,4-b]indol-1-yl)phenoxy)ethyl)piperazin-1-yl)methyl)-3-ethyl-1,5-naphthyridin-2(1H)-one] | 500 to 5000 nM
3 | – | ≤ 100 nM | ≤ 500 nM | ≤ 500 nM | CCc1cc2ncc(CN3CCN(CCCCCCOc4cc(F)c([C@@H]5c6[nH]c7ccccc7c6C[C@@H](C)N5CC(C)(C)F)c(F)c4)CC3)cc2[nH]c1=O [Compound 72, 7-((4-(6-(3,5-Difluoro-4-((1R,3R)-2-(2-fluoro-2-methylpropyl)-3-methyl-2,3,4,9-tetrahydro-1H-1-pyrido[3,4-b]indol-1-yl)phenoxy)hexyl)piperazin-1-yl)methyl)-3-ethyl-1,5-naphthyridin-2(1H)-one] | 5000 to 30000 nM
4 | – | ≤ 100 nM | ≤ 500 nM | ≤ 500 nM | CCc1cc2ncc(CN3CCN(C(=O)COc4cc(F)c([C@@H]5c6[nH]c7ccccc7c6C[C@@H](C)N5CC(C)(C)F)c(F)c4)CC3)cc2[nH]c1=O [Compound 73, 7-((4-(2-(3,5-Difluoro-4-((1R,3R)-2-(2-fluoro-2-methylpropyl)-3-methyl-2,3,4,9-tetrahydro-1H-pyrido[3,4-b]indol-1-yl)phenoxy)acetyl)piperazin-1-yl)methyl)-3-ethyl-1,5-naphthyridin-2(1H)-one] | > 30000 nM
5 | – | ≤ 100 nM | ≤ 500 nM | ≤ 500 nM | CCc1cc2ncc(CN3CCC(N(C)C(=O)COc4cc(F)c([C@@H]5c6[nH]c7ccccc7c6C[C@@H](C)N5CC(C)(C)F)c(F)c4)CC3)cc2[nH]c1=O [Compound 74, 2-(3,5-Difluoro-4-((1R,3R)-2-(2-fluoro-2-methylpropyl)-3-methyl-2,3,4,9-tetrahydro-1H-pyrido[3,4-b]indol-1-yl)phenoxy)-N-(1-((7-ethyl-6-oxo-5,6-dihydro-1,5-naphthyridin-3-yl)methyl)piperidin-4-yl)-N-methylacetamide] | 500 to 5000 nM
